Key:
[1] = tested on: T98MG gliomas cell line; format: cell-based, human; conditions: 2.5 mM TMZ without LMODN
Method: T98MG glioma cell line cells were treated with increasing doses of the decoy ODN's of the invention. Double stranded ODNs (30mers), corresponding to MGMT-κB1 binding site (as also denoted by SEQ. ID. NO. 1), and control ODNs were purchased from IDT. Each strand of ODN was thirty-mers and contained six LNA nucleotides. The following ODNs were used: MGMT-kB1forward: 5′---+T+AATGGGG+ACTTTAC GGG+[…]+A+T---3′ (as also denoted by SEQ. ID. NO. 40) with or without the 5′ end labeled with carboxyfluorescein-5-succimidyl ester (FAM). The MGMT-kB1 reverse ODN: 5′---+A+TTCTGTA+[…]+[…]+T+A---3′ as also denoted by SEQ ID NO. 41). Control forward: 5′---+T+AG TGT CG+A CTT CAC TCT+ACT TGA CAG A+A+T---3′ (as also denoted by SEQ ID NO. 42), control reverse: 5′---+A+TT CTG TC+A AGT AGA GTG+AAG TCG ACA C+T+A---3′ as also denoted by SEQ ID NO. 43). It should be noted that (+designated as nucleotide containing an LNA modification).
The viability of the cells was tested 24-48 hrs later by CellTiter-Blue assay (Promega®). The assay was carried out according to the supplier's instructions. Briefly, the assay is based on the ability of living cells to convert a redox dye (resazurin) into a fluorescent end product (resorufin). Cell viability estimation is done by measuring the fluorescent intensity of resorufin (ex. 560 nm, em. 590 nm) using a fluorescent microplate reader.
The inventors next tested the potential of the decoy LMODN molecules of the invention to sensitize tumor cells to alkylating agents and thereby improve their efficacy as anti-cancerous treatment. Therefore, several human cancer cell lines were treated with alkylating agents with increasing doses of MGMT-kB1-ODN followed by cell viability tests. First, the sensitivity of each cell line to several alkylating agents, mainly temozolomide (TMZ) and BCNU was calibrated. At 24 hrs following sowing, cells were exposed for two hours to increasing concentrations of the alkylating agent and viability of the cells was tested 24-48 hrs later by CellTiter-Blue assay (Promega®). To test the potential of MGMT-kB1-LMODN to sensitize tumor cells to alkylating agents in-vitro, increasing doses of LMODNs MGMT-kB1 forward and reverse as denoted by SEQ ID NO. 40 and 41, respectively), with or without the 5′ end labeled with carboxyfluorescein-5-succimidyl ester (FAM), as well as the control LMODNs (as denoted by SEQ ID NO. 42 and 43), were liposomally introduced (Lipofectamine 2000, Invitrogen) to various tumor cancer cells. Twenty four hours later, cells were treated with the different doses of alkylating agents as calibrated before.
FIG. 9 represents an example of T98MG gliomas cell line sensitized to alkylating agents in response to treatment with the LMODN's of the invention. […]

[2] = molecular target: T1, NF-κB/p65 (Homo sapiens, UniProt Q04206); experiment: Gel electrophoretic mobility shift assay (EMSA) with HeLa nuclear extracts; format: binding; conditions: nuclear extracts from Hela cells exposed to TNFα (200 u/ml)
T1 construct: 10 μg of nuclear extracts with 0.3 ng of ^32P-labeled synthetic double-stranded oligodeoxynucleotides; endogenous in cells; host or cells: HeLa cells treated with TNFα (nuclear extract)
Method: Nuclear extracts were prepared from HeLa cells treated with 200 units/ml of TNFα for 15 min. Oligodeoxynucleotides spanning the NF-κB binding site within the MGMT promoter (also denoted by SEQ ID NO. 4 and 5), with or without a C-G mutation (also denoted by SEQ ID NO. 6 and 7) or the consensus NF-κB site from HIV LTR (SEQ ID NO. 3, also shown in FIG. 1B), were end-labeled by a fill-in reaction using the Klenow fragment of DNA polymerase (New England Biolabs, Beverly, Mass.). DNA binding reactions were performed by incubation on ice for 15 min of 10 μg of nuclear extracts with 0.3 ng of ^32P-labeled synthetic double-stranded oligodeoxynucleotides in the presence of 10 mM Hepes, pH 7.9, 10% glycerol, 50 mM KCl, 5 mM MgCl2, 5 mM dithiothreitol, 2 μg of poly (dI·dC), and 0.1% Nonidet P-40. Competitor oligonucleotides were incubated in 100-fold molar excess and preincubated in the reaction mixtures for 10 min before addition of the radiolabeled probe. For supershift experiments, 1 μl of p65 antibody (MAB16200, Chemicon International Inc., Temecula, Calif.) was added during the preincubation period.
To explore whether the NF-κB sites found within the MGMT promoter actually bind NF-κB, the inventors next performed an EMSA analysis of nuclear extracts from HeLa cells treated with TNFα and with labeled DNA fragments spanning the region containing the NF-κB motif. As shown by FIG. 1C, this process generated a nuclear binding factor specific for these regions (FIG. 1C, lanes 5 and 9), of the same size as the complex attached to the consensus HIV-κB site as also denoted by SEQ ID NO. 3 (FIG. 1C, lane 2) as indicated by the black arrows. […] Binding specificity was confirmed by competition with cold HIV-κB oligonucleotide. […] This confirmed that p65 binds to both NF-κB putative sites. The upper band in lane 9 (FIG. 1C) is not the same size as the NF-κB complex attached to the canonical HIV-κB oligonucleotide (FIG. 1C, lane 2). It was neither shifted when incubated with NF-κB/p65 antibodies (lane 10), nor abolished in the presence of unlabeled HIV-κB probe (FIG. 1C, lane 11). Based on the finding that the MGMT-κB2 binding site overlaps the Sp1 site, the inventors speculate that this complex may further contain Sp1. This speculation is also supported by its size, which is the same as that of the complex attached to the Sp1 oligonucleotide (FIG. 1C, lane 1).

[3] = tested on: MGMT-kB1-Luc reporter construct induced by NF-κB/p65; experiment: Luciferase reporter assay, MGMT-kB1-Luc co-transfected with NF-κB/p65; format: cell-based, human
Method: Transient transfections were performed in 6-well plates, using the FuGene6 transfection reagent (Roche Diagnostics GmbH, Mannheim, Germany), according to the manufacturer's instructions. U87MG, T98G, and A172 cells were transfected with pNF-κB-Luc reporter Vector (Clontech, Palo Alto, Calif.), while RG2 and U87MG were transfected with MGMT-Luc [construct p-954/+24 mL [Biswas T. et al. Oncogene 18:525-32 (1999)] kindly provided by Sankar Mitra] (1 μg/well). CMVβ-galactosidase expression vector (CMVβgal-Clonthech) was included (0.1 μg/well) in each transfection to normalize transfection efficiency. HEK293 cells were transfected with CMVβgal alone or along with one or more of the following plasmids: CMVp65, CMVΔNIκB, CMVp50, CMVcJun. CMVp65 and CMVΔNIκB plasmids were kindly provided by Prof. Yinon. Ben-Neriah (The Hebrew University, Jerusalem, Israel), CMVp50 and CMVcJun were kindly provided by Dr. Danielle Melloul (Hadassah Hebrew University Medical Center, Jerusalem, Israel).
At 24 hrs following transfection, the cells were lysed for 15 min on ice with 200 μl of luciferase lysis buffer (Promega, Madison, Wis.). Luciferase assays were carried out using a Promega assay kit and a luminometer (EG&G Berthold, Bad Wildbad, Germany). The activity was normalized to β-galactosidase activity (Promega) and plotted as the mean±s.d. of triplicates from a representative experiment.
For the cloning of the MGMT-luc constructs the reporter vector p-TA-Luc (Clontech, Palo Alto, USA) was used. The plasmid contains TATA box motif upstream to a luciferase reporter gene. A double stranded DNA corresponding to four repeats of each sequence as indicated by FIG. 8A (also denoted by SEQ ID NO. 44, 45, 46 and 47), was synthesis by syntezza LTD and ligated upstream to the TATA box.
To test the activity of these sites, several luciferase reporter genes bearing four copies of either intact or mutant sequence, of each of the two NF-κB sites (NF-κB1 and NF-κB2), were constructed as indicated in Experimental procedures. […] An inhibition of approximately 50% was observed using 100 nM ODN. Negative control using the CMVΔNIκB (ΔN)-Luc construct as well as positive control using the canonical HIV-κB-Luc reporter construct, confirmed validity of the data.
Induction of over expression of NF-κB in HEK 293T cells by transfection of a CMV-NF-κB/p65 generated a 50-fold elevation in luciferase expression driven by the Co-transfected reporter construct MGMT-kB1-Luc. […] Inhibition of approximately 90% was induced by 150 nM LMODN. […] No inhibition was detected when a mutant LMODN was introduced into the cells, indicating the specificity of MGMT-kB1-LMODN (of SEQ ID NO. 40 and 41). […] 3 (HIV-κB-Luc construct).

T1 sequence (Q04206 whole entry): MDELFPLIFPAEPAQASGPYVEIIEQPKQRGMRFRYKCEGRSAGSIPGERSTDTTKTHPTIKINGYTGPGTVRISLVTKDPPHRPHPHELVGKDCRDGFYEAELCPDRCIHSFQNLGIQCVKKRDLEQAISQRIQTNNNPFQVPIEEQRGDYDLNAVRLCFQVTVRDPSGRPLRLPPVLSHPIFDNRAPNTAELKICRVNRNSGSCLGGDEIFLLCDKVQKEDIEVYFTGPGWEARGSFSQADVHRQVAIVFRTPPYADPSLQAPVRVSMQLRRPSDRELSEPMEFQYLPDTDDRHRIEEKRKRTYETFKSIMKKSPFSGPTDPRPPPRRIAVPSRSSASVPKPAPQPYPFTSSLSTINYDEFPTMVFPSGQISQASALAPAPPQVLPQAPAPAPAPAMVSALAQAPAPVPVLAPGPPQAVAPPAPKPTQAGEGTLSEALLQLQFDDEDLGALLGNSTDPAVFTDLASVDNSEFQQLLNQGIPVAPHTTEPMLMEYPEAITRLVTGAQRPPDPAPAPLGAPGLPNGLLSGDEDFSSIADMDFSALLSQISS

Row | Compound | binding of NF-κB in nuclear extract to 32P-labeled probe (in words) [2] | further results
1 | Cn1nnc2c(C(N)=O)ncn2c1=O [TMZ, temozolomide] |  | live cells [1]: 60%
2 | HIV-κB: consensus NF-κB site from HIV LTR, control probe (DNA GGCTTCAGAGGGGACTTTCCGAGA; labeled probe, label not given here, further chemistry not given here; listed as Homo sapiens) | formation of complexes of a similar size | 
3 | MGMT-κB1 Mut: MGMT-κB1 oligonucleotide with mutated site (C-to-G substitution) (DNA TGATGGCTTCTGTAAAGTCGGCATCTCCAAATAAGGTCAC; DNA, backbone not given here; further chemistry not fully specified; listed as Homo sapiens) | Specific binding was not observed | 
4 | MGMT-κB2 Mut: MGMT-κB2 oligonucleotide with mutated site (C-to-G substitution) (DNA GGCGGGAACACGGCGCCCCGCCCG; DNA, backbone not given here; further chemistry not fully specified; listed as Homo sapiens) | Specific binding was not observed | 
5 | MGMT-κB2: EMSA oligodeoxynucleotide probe spanning the NF-κB binding site MGMT-κB2 within the MGMT promoter (DNA GGCGGGAACACCCCGCCCCGCCCG; DNA, backbone not given here; further chemistry not fully specified; listed as Homo sapiens) | formation of complexes of a similar size | 
6 | MGMT-κB-1: EMSA oligodeoxynucleotide probe spanning the NF-κB binding site MGMT-κB1 within the MGMT promoter (DNA TGATGGCTTCTGTAAAGTCCCCATCTCCAAATAAGGTCAC; DNA, backbone not given here; further chemistry not fully specified; listed as Homo sapiens) | formation of complexes of a similar size | 
7 | SEQ ID NO. 36 and 37: double stranded LNA modified ODN decoy of MGMT-kB1 site; forward SEQ ID NO. 36, reverse SEQ ID NO. 37 (sense TAAGAGGGACTTTACGGGACTTTACTACAT; antisense ATGTAGTAAGTCCCGTAAAGTCCCTCTTA; LNA modifications, chemistry not fully specified; listed as Homo sapiens) [double stranded LNA modified ODN decoy of MGMT-kB1 site; 37] |  | inhibition of luciferase activity ([3]; 100 nM ODN, HEK293T, MGMT-κB1 reporter construct + NF-κB/p65 (FIG. 7)): approximately 50%; effect on luciferase activity driven by MGMT-kB1 reporter (in words) ([3]; HEK293T co-transfected with MGMT-kB1 reporter and NF-κB/p65): decreased the luciferase activity in a dose-dependent manner
